Measured values published in PMC4126514 (Toxicology and applied pharmacology, 2011).

Columns and labels:
AhR = settings: ref Craft et al. 2002; Honkakoski et al. 2003; Tabb et al. 2004; Kopec et al. 2010b; cited from earlier work
hepatic gene expression = settings: liver, 300 mg/kg PCB153; ref Kopec et al. 2010b; cited from earlier work
liver of C57BL/6 mice [1] = test: Liver histopathology; assay type: in vivo, mouse
C57BL/6 mice = test: Organ and body weights; assay type: in vivo, mouse; settings: 24 h dose-response study
[2] = liver, after seven days; ref Kopec et al. 2010b; cited from earlier work
liver of C57BL/6 mice [3] = test: Hepatic triglyceride measurement; assay type: in vivo, mouse
[4] = ref Diliberto et al. 1999; cited from earlier work
liver = settings: when co-treated with TCDD; ref Mitchell et al. 2010; cited from earlier work

| SMILES | AhR binding or activation (AhR) | down-regulation of Elovl5 (hepatic gene expression) | hepatic inflammation (liver of C57BL/6 mice [1]; time course study) | hepatocellular hypertrophy (liver of C57BL/6 mice [1]; time course study) | hepatocellular vacuolization (liver of C57BL/6 mice [1]; time course study) | relative liver weight (RLW) (C57BL/6 mice) | hepatic level at 168 h [2] | hepatic triglycerides (liver of C57BL/6 mice [3]) | hepatic TCDD accumulation, fold lower in Cyp1a2 null mice compared to wild types [4] | hepatic inflammation / cell infiltration (liver of C57BL/6 mice [1]; 24 h dose-response, TCDD 15, 30, 45 μg/kg, MIX three highest combinations) | increase in hepatic proliferation (liver) |
| --- | --- | --- | --- | --- | --- | --- | --- | --- | --- | --- | --- |
| Clc1cc(Cl)c(-c2cc(Cl)c(Cl)cc2Cl)cc1Cl [PCB153, 2,2′,4,4′,5,5′-hexachlorobiphenyl] | does not bind or activate | ~ 2 fold | did not elicit inflammation | mild to moderate centrilobular hypertrophy | vacuolization comparable to levels observed in vehicles | increased RLW only at 100 and 300 mg/kg | dramatically decreased | no effect | – | – | – |
| Clc1cc2c(cc1Cl)Oc1cc(Cl)c(Cl)cc1O2 [TCDD, 2,3,7,8-tetrachlorodibenzo-p-dioxin] | – | – | moderate multifocal inflammation | – | marked hepatocellular vacuolization | comparable increases in RLW in all but the lowest dose groups | more modest reductions | significant increases | 10 fold | minimal multifocal inflammation | – |
| Clc1cnc(Oc2ccc(Oc3ncc(Cl)cc3Cl)cc2)c(Cl)c1 [TCPOBOP] | – | – | – | – | – | – | – | – | – | – | 30–50% |
